What was measured:
morningglory = assay: Test C postemergence; format: in vivo, Ipomoea coccinea; conditions: Ipomoea, post-emergence
Method in brief: (§1)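 Preemergence: seeds sown in a loam soil–sand blend and sprayed with test chemical in a non-phytotoxic solvent mixture containing surfactant. Postemergence: plants at 2 to 18 cm (1- to 4-leaf stage) in peat-based medium, treated with the same formulation. Greenhouse 13 to 15 days, then visual rating 0 (no effect) to 100 (complete control).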

Heteranthera limosa = assay: Test B flooded paddy test; format: in vivo; conditions: Heteranthera limosa, Flood, 250 g ai/ha; 0 to 100 scale where 0 is no effect and 100 is complete control; read-out: Plant response rating, Ducksalad
Method in brief: (§2)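 Plants were grown to the 2-leaf stage, then pots were flooded to 3 cm above the soil and compounds were applied directly into the paddy water. That depth was held throughout, and after 13 to 15 days in the greenhouse injury was rated visually against controls on a 0–100 scale (0 no effect, 100 complete control).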

sedge, umbrella = assay: Test B flooded paddy test; format: in vivo, Cyperus difformis; conditions: Cyperus difformis, Flood, 250 g ai/ha; 0 to 100 scale where 0 is no effect and 100 is complete control; read-out: Plant response rating, Sedge, Umbrella
Method in brief: as §2

corn = assay: Test A preemergence; format: in vivo, Zea mays; conditions: Zea mays, pre-emergence, 240 h
Method in brief: (§3)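 Greenhouse pot test, loam/sand soil. Formulation: non-phytotoxic solvent mix plus surfactant. Pre: directed spray onto soil after sowing. Post: plants at 1–2 leaf, 2–10 cm. Rated visually vs untreated controls at ~10 d, 0 (no effect) to 100 (complete control).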

wheat, winter = assay: Test C postemergence; format: in vivo, Triticum aestivum; conditions: Triticum aestivum, post-emergence
Method in brief: as §1

giant foxtail = assay: Test A preemergence; format: in vivo, Setaria faberii; conditions: Setaria faberi, pre-emergence, 240 h
Method in brief: as §3

barnyardgrass [1] = assay: Test A preemergence; format: in vivo, Echinochloa crus-galli; conditions: Echinochloa crus-galli, pre-emergence, 240 h
Method in brief: as §3

galium = assay: Test C postemergence; format: in vivo, Galium aparine; conditions: Galium, post-emergence
Method in brief: as §1

barnyardgrass [2] = assay: Test B flooded paddy test; format: in vivo, Echinochloa crus-galli; conditions: Echinochloa crus-galli; Flood, 250 g ai/ha; 0 to 100 scale where 0 is no effect and 100 is complete control; read-out: Plant response rating, Barnyardgrass
Method in brief: as §2

ragweed = assay: Test C postemergence; format: in vivo, Ambrosia elatior; conditions: Ambrosia artemisiifolia, post-emergence
Method in brief: as §1

wheat = assay: Test A preemergence; format: in vivo, Triticum aestivum
Method in brief: as §3

chickweed = assay: Test C postemergence; format: in vivo, Stellaria media; conditions: Stellaria media, post-emergence
Method in brief: as §1

velvetleaf = assay: Test C postemergence; format: in vivo, Abutilon theophrasti; conditions: Abutilon theophrasti, post-emergence
Method in brief: as §1

rice = assay: Test B flooded paddy test; format: in vivo, Oryza sativa; conditions: Oryza sativa; Flood, 250 g ai/ha; 0 to 100 scale where 0 is no effect and 100 is complete control; read-out: Plant response rating, Rice
Method in brief: as §2

yellow nutsedge = assay: Test C postemergence; format: in vivo, Cyperus esculentus; conditions: Cyperus, post-emergence
Method in brief: as §1

lambsquarters = assay: Test C postemergence; format: in vivo, Chenopodium album; conditions: Chenopodium album, post-emergence
Method in brief: as §1

[3] = 125 g ai/ha, 0 to 100 scale where 0 is no effect and 100 is complete control

SMILES: N#Cc1cccc(Oc2ncc(Cl)cn2)c1-n1cc(Br)cn1 [Compound 52, 2-(4-bromo-1H-pyrazol-1-yl)-3-[(5-chloro-2-pyrimidinyl)oxy]benzonitrile]
- pest or weed control at 125 g/ha (morningglory; 125 g ai/ha, postemergence, read-out: Plant response rating (0 to 100), Morningglory): 95%
- pest or weed control at 250 g/ha (morningglory; 250 g ai/ha, postemergence, read-out: Plant response rating (0 to 100), Morningglory): 100%
- pest or weed control at 31 g/ha (morningglory; Postemergence, 31 g ai/ha, scale 0 to 100 (0 no effect, 100 complete control), 13 to 15 days, read-out: Plant response rating, Morningglory): 80%
- pest or weed control at 62 g/ha (morningglory; Postemergence, 62 g ai/ha, scale 0 to 100 (0 no effect, 100 complete control), read-out: Plant response rating, Morningglory): 80%
- pest or weed control at 250 g/ha (Heteranthera limosa): 70%
- pest or weed control at 250 g/ha (sedge, umbrella): 95%
- Corn plant response rating (crop injury, 0 = no effect, 100 = complete kill) at 125 g/ha (corn; [3]): 20%
- plant injury at 500 g/ha (corn; 500 g ai/ha, 0 to 100 scale, 0 no effect, 100 complete control, approx. 10 days, read-out: Corn plant response rating): 80%
- plant injury at 125 g/ha (wheat, winter; 125 g ai/ha, postemergence, read-out: Plant response rating (0 to 100), Wheat): 5%
- plant injury at 250 g/ha (wheat, winter; 250 g ai/ha, postemergence, read-out: Plant response rating (0 to 100), Wheat): 5%
- plant injury at 31 g/ha (wheat, winter; Postemergence, 31 g ai/ha, scale 0 to 100 (0 no effect, 100 complete control), 13 to 15 days, read-out: Plant response rating, Wheat): 0%
- plant injury at 62 g/ha (wheat, winter; Postemergence, 62 g ai/ha, scale 0 to 100 (0 no effect, 100 complete control), read-out: Plant response rating, Wheat): 0%
- pest or weed control at 125 g/ha (giant foxtail; 125 g ai/ha, 0 to 100 scale where 0 is no effect and 100 is complete control, read-out: Plant response rating, Foxtail, Giant): 100%
- pest or weed control at 500 g/ha (giant foxtail; 500 g ai/ha, 0 to 100 scale, 0 no effect, 100 complete control, approx. 10 days, read-out: Foxtail, Giant plant response rating): 100%
- pest or weed control at 125 g/ha (barnyardgrass [1]; 125 g ai/ha, 0 to 100 scale where 0 is no effect and 100 is complete control, read-out: Plant response rating, Barnyardgrass): 90%
- pest or weed control at 500 g/ha (barnyardgrass [1]; 500 g ai/ha, 0 to 100 scale, 0 no effect, 100 complete control, approx. 10 days, read-out: Barnyardgrass plant response rating): 100%
- pest or weed control at 125 g/ha (galium; 125 g ai/ha, postemergence, read-out: Plant response rating (0 to 100), Galium): 85%
- pest or weed control at 250 g/ha (galium; 250 g ai/ha, postemergence, read-out: Plant response rating (0 to 100), Galium): 90%
- pest or weed control at 31 g/ha (galium; Postemergence, 31 g ai/ha, scale 0 to 100 (0 no effect, 100 complete control), 13 to 15 days, read-out: Plant response rating, Galium): 60%
- pest or weed control at 62 g/ha (galium; Postemergence, 62 g ai/ha, scale 0 to 100 (0 no effect, 100 complete control), read-out: Plant response rating, Galium): 60%
- pest or weed control at 250 g/ha (barnyardgrass [2]): 30%
- pest or weed control at 125 g/ha (ragweed; 125 g ai/ha, postemergence, read-out: Plant response rating (0 to 100), Ragweed): 80%
- pest or weed control at 250 g/ha (ragweed; 250 g ai/ha, postemergence, read-out: Plant response rating (0 to 100), Ragweed): 95%
- pest or weed control at 31 g/ha (ragweed; Postemergence, 31 g ai/ha, scale 0 to 100 (0 no effect, 100 complete control), 13 to 15 days, read-out: Plant response rating, Ragweed): 40%
- pest or weed control at 62 g/ha (ragweed; Postemergence, 62 g ai/ha, scale 0 to 100 (0 no effect, 100 complete control), read-out: Plant response rating, Ragweed): 45%
- Plant response rating, Wheat (wheat; [3]): 20
- plant injury at 500 g/ha (wheat; Triticum aestivum, pre-emergence, 240 h, 500 g ai/ha, 0 to 100 scale, 0 no effect, 100 complete control, approx. 10 days, read-out: Wheat plant response rating): 80%
- pest or weed control at 125 g/ha (chickweed; 125 g ai/ha, postemergence, read-out: Plant response rating (0 to 100), Chickweed): 90%
- pest or weed control at 250 g/ha (chickweed; 250 g ai/ha, postemergence, read-out: Plant response rating (0 to 100), Chickweed): 95%
- pest or weed control at 31 g/ha (chickweed; Postemergence, 31 g ai/ha, scale 0 to 100 (0 no effect, 100 complete control), 13 to 15 days, read-out: Plant response rating, Chickweed): 40%
- pest or weed control at 62 g/ha (chickweed; Postemergence, 62 g ai/ha, scale 0 to 100 (0 no effect, 100 complete control), read-out: Plant response rating, Chickweed): 60%
- pest or weed control at 125 g/ha (velvetleaf; 125 g ai/ha, postemergence, read-out: Plant response rating (0 to 100), Velvetleaf): 70%
- pest or weed control at 250 g/ha (velvetleaf; 250 g ai/ha, postemergence, read-out: Plant response rating (0 to 100), Velvetleaf): 90%
- pest or weed control at 31 g/ha (velvetleaf; Postemergence, 31 g ai/ha, scale 0 to 100 (0 no effect, 100 complete control), 13 to 15 days, read-out: Plant response rating, Velvetleaf): 50%
- pest or weed control at 62 g/ha (velvetleaf; Postemergence, 62 g ai/ha, scale 0 to 100 (0 no effect, 100 complete control), read-out: Plant response rating, Velvetleaf): 60%
- plant injury at 250 g/ha (rice): 20%
- pest or weed control at 125 g/ha (yellow nutsedge; 125 g ai/ha, postemergence, read-out: Plant response rating (0 to 100), Nutsedge, Yellow): 5%
- pest or weed control at 250 g/ha (yellow nutsedge; 250 g ai/ha, postemergence, read-out: Plant response rating (0 to 100), Nutsedge, Yellow): 30%
- pest or weed control at 31 g/ha (yellow nutsedge; Postemergence, 31 g ai/ha, scale 0 to 100 (0 no effect, 100 complete control), 13 to 15 days, read-out: Plant response rating, Nutsedge, Yellow): 0%
- pest or weed control at 62 g/ha (yellow nutsedge; Postemergence, 62 g ai/ha, scale 0 to 100 (0 no effect, 100 complete control), read-out: Plant response rating, Nutsedge, Yellow): 5%
- pest or weed control at 125 g/ha (lambsquarters; 125 g ai/ha, postemergence, read-out: Plant response rating (0 to 100), Lambsquarters): 90%
- pest or weed control at 250 g/ha (lambsquarters; 250 g ai/ha, postemergence, read-out: Plant response rating (0 to 100), Lambsquarters): 100%
- pest or weed control at 31 g/ha (lambsquarters; Postemergence, 31 g ai/ha, scale 0 to 100 (0 no effect, 100 complete control), 13 to 15 days, read-out: Plant response rating, Lambsquarters): 85%
- pest or weed control at 62 g/ha (lambsquarters; Postemergence, 62 g ai/ha, scale 0 to 100 (0 no effect, 100 complete control), read-out: Plant response rating, Lambsquarters): 90%

Source: US9695155B2, “Herbicidal substituted pyrimidinyloxy benzene compounds” (E. I. DU PONT DE NEMOURS AND COMPANY, priority 2013, dated 2017)
